From patent US20240246920A1, “TRIAZOLE DERIVATIVES WITH ANTIFUNGAL ACTIVITY” (King's College London, priority 2020, published 2024) come the findings set out here.

One test has as its system C. albicans NCPF3281. As to the kind of experiment: Candida panel MIC, serial dilution in 96-well plates. Format: cell-based, Candida albicans. The gist of the method: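 Broth microdilution in RPMI 1640 with 2% glucose and MOPS at pH 7.0, compound 128 to 0.25 μg/mL, inoculum 0.5-5×10^5/mL. Incubation 24 h at 37 °C. MIC is the lowest concentration giving ≥50% growth inhibition versus drug-free control, read at OD530.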

A further test relates to C. krusei NCPF3876. As to the kind of experiment: microbe, parasite or virus in culture. Format: cell-based, Candida krusei. As to conditions: Pichia kudriavzevii. The gist of the method:
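MIC taken as lowest concentration inhibiting growth ≥50% relative to drug-free control, from OD530 after 24 hours at 37° C. Fungi at 0.5-5×10^5/mL were exposed to serially diluted compound in RPMI 1640/MOPS/2% glucose medium adjusted to pH 7.0.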

The subject of another test is C. auris 8971. Put plainly: Candida panel MIC, serial dilution in 96-well plates. Format: cell-based, Candida auris. The gist of the method: (§1)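 Starter cultures grown overnight at 37° C in RPMI 1640/MOPS/2% glucose, pH 7.0; inoculum 0.5-5×10^5/mL with compound serially diluted from DMSO into media.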
The test system of another test is C. auris 8977. The test is described as above. The format is cell-based, Candida auris. The gist of the method:
as §1

The next test relates to C. auris 8984. The test is described as above. Format: cell-based, Candida auris. In a few lines:
as §1

The subject of test [1] is Aspergillus carbonarius ATCC 8740. As to the kind of experiment: Aspergillus panel MIC. The format is cell-based. As to conditions: Table 8. As for the experimental part:
(§2) Starter cultures of fungal strains to be tested were grown in 3 mL of RPMI 2% glucose media incubated at 37° C. with shaking at 200 rpm overnight. The culture media used was 900 mL H2O; 10.4 g RPMI 1640 (with L-glutamine and a pH indicator but without bicarbonate); 34.5 g MOPS and 18 g glucose. The pH of the media was adjusted to 7.0 with 1 M sodium hydroxide.
(§3) Solutions of the compound to be tested were prepared by dissolving the compound in DMSO and subsequently into media to the desired concentrations. 200 μL of compound solution was then added to the wells of the 96-well plate using a serial dilution method row-by row of the plate to give a compound concentration gradient across the plate of from 128 μg/mL to 0.25 μg/mL. The last two rows of each plate were control rows containing the culture media alone and the media plus fungi.
(§4) The fungi starter cultures were diluted 1:10 in water in cuvettes. This was then further diluted to an optical density (OD600) of 0.01 in media. 100 μL of the fungi was added to each well giving a starting concentration of fungus of 0.5-5×10^5/mL. One species of fungus was used on each plate. The plates were then held at 37° C. for 24 hours.
(§5) A plate reader was used to measure growth in each well at OD530 nm and the MIC was determined for each test compound. The MIC is defined as the lowest concentration giving rise to inhibition of ≥50% of that of the drug-free control well containing the fungus and media.
(§6) The compound of Example 2 (which corresponds to compound number 2) was tested against a panel of Aspergillus strains using a method analogous to that described above for the Candida Panel.

Test [2] relates to Aspergillus fulavus ATCC 204304. As to the kind of experiment: Aspergillus panel MIC. As to conditions: Table 8. Format: cell-based. The protocol: as §2, §3, §4, §5, §6
For test [3], the system named is Aspergillus fumigatus ATCC 1028. Put plainly: Aspergillus panel MIC. The format is cell-based. As to conditions: Table 8. As for the experimental part: as §2, §3, §4, §5, §6
Test [4] concerns Aspergillus fumigatus ATCC 204305. As to the kind of experiment: Aspergillus panel MIC. Format: cell-based. Conditions: Table 8. As for the experimental part: as §2, §3, §4, §5, §6

Converted amounts (≈) assume the structure as drawn. Where two headings read alike, the source gives them in different places. A value given as a limit tells only on which side of the number the result lay.

In the case of `OC(Cn1cncn1)(Cn1cncn1)c1ccc(F)cc1F` [Fluconazole, fluconazole, reference compound], the MIC is greater than 128 µg/mL in the test with C. albicans NCPF3281 (Candida albicans, NCPF3281, read-out: MIC Fluconazole, C. albicans 3281); no more than 0.125 µg/mL with C. albicans NCPF3281 (Candida albicans, NCPF3281, Table 4, common panel, 24 hours, ≥50% inhibition, read-out: MIC C. albicans NCPF3281); no more than 0.125 µg/mL in the test on C. albicans NCPF3281 (NCPF3281, Table 6, Candida albicans panel, read-out: MIC C. albicans NCPF3281); 0.5 to 8 µg/mL (≈ 1.63 to 26.1 µM) in the test on C. krusei NCPF3876 (NCPF3876, read-out: MIC C. Krusei NCPF3876); 32 µg/mL (≈ 104 µM) in the test with C. krusei NCPF3876 (NCPF3876, read-out: MIC Fluconazole, C. krusei 3876); 0.5 to 8 µg/mL (≈ 1.63 to 26.1 µM) with C. krusei NCPF3876 (NCPF3876, Table 4, common panel, 24 hours, ≥50% inhibition, read-out: MIC C. krusei NCPF3876). The MIC in the test on C. auris 8971 (Candidozyma auris, 8971, 24 h, read-out: MIC C. auris 8971) is 16 µg/mL (≈ 52.2 µM); with C. auris 8971 (Candidozyma auris, 8971, read-out: MIC C. auris 8971), 32 µg/mL (≈ 104 µM); with C. auris 8977 (Candidozyma auris, 8977, 24 h, read-out: MIC C. auris 8977), 32 µg/mL (≈ 104 µM); with C. auris 8977 (Candidozyma auris, 8977, read-out: MIC C. auris 8977), 16 µg/mL (≈ 52.2 µM); in the test with C. auris 8984 (Candidozyma auris, 8984, 24 h, read-out: MIC C. auris 8984) it was greater than 128 µg/mL; in the test with C. auris 8984 (Candidozyma auris, 8984, read-out: MIC C. auris 8984), greater than 128 µg/mL. In test [1], the “Minimum inhibitory concentration Aspergillus carbonarius ATCC 8740” value was greater than 64. Further, the “Minimum inhibitory concentration Aspergillus fulavus ATCC 204304” value in test [2] is greater than 64. The “Minimum inhibitory concentration Aspergillus fumigatus ATCC 1028” value in test [3] is on record as greater than 64. Further, in [4], the “Minimum inhibitory concentration Aspergillus fumigatus ATCC 204305” value was greater than 64.
